In patent US20110104290A1, “COMPOSITIONS FOR REDUCING BLOOD GLUCOSE LEVEL AND USES THEREOF” (priority 2008, published 2011):

Tested on: STZ-induced hyperglycemic rats
Test: Anti-hyperglycemic effect in STZ-induced hyperglycemic rats (serum blood glucose level)
Type: in vivo, Sprague-Dawley (SD) rats
Experimental: For the purpose of the present invention, the dietary supplement prepared in accordance with Example 1 is named Composition 1. Composition 1 is an herbal supplement used for control of blood glucose level. The purpose of this study was to assess the anti-hyperglycemic effect of Composition 1 tablet in STZ-induced hyperglycemic rats.
Sprague-Dawley (SD) rats weighing 230˜270 g were used to establish the hyperglycemic rat model. Animals were fasted for 18 hours before receiving a single intraperitoneal injection of 2% STZ at a dose of 40 mg/kg BW (2.0 ml/kg). Six SD rats were selected as the Blank Control Group and injected intraperitoneally with citric acid buffer at a dose of 2.0 ml/kg BW. All rats had free access to food and water after the injection. Blood samples were collected from rats' posterior orbits veins at 72 hours after the injection for determination of the blood glucose level. Successful establishment of hyperglycemic rat model was defined as a non-fasting venous blood glucose level≧13.8 mmol/L. […]
The clinical dose of Metformin for human is 1˜1.5 g/day, which is about 0.025 g/kg body weight/day for an adult. The administration dose of Metformin for rat was calculated to be 0.25 g/kg body weight/day, 10 times of human clinical dose. […]

CN(C)C(=N)N=C(N)N [Metformin]
blood glucose levels compared to the Model Control Group (Metformin Control Group 0.25 g/kg/day, 3rd and 4th weeks after the beginning of administration, p<0.05): lower | decrease of end-point blood glucose level compared to level prior to the treatment (Metformin Control Group, 0.25 g/kg/day i.g., after the 4-week treatment): 59%
